From patent US20160060260A1, “BROMODOMAIN INHIBITORS FOR TREATING DISEASE” (Board of Regents, The University of Texas System, priority 2014, published 2016)

The compounds below were run against T1, Recombinant human His-tagged Trim24-PHD-bromodomain (Homo sapiens, UniProt O15164) (assay: Trim24 AlphaScreen Assay). Details: 5 nM Trim24 protein, 15 nM biotinylated H3K23ac (1-33aa) peptide.
T1 construct: Recombinant human His-tagged Trim24-PHD-bromodomain (produced in-house); made in house
T1 sequence (O15164 824-1006 limits assumed): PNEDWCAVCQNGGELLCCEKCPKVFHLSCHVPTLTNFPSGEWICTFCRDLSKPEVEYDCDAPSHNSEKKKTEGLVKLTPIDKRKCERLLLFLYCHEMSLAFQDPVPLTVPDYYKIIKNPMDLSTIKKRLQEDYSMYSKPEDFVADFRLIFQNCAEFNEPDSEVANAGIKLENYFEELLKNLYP
Type: binding
Summary of the method: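 His-tagged Trim24-PHD-bromodomain, biotinylated H3K23ac (1-33aa) peptide and compound incubated 1 h at room temperature in 50 mM Hepes pH 7.5, 100 mM NaCl, 0.12 mM Triton X-100.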

Row | SMILES | IC50
1 | CCCOc1cc(OCCCOC)cc(Oc2cc3c(cc2NS(=O)(=O)c2ccc(OC)c(OC)c2)n(C)c(=O)n3C)c1 [Example 138, 3,4-dimethoxy-N-(6-(3-(3-methoxypropoxy)-5-propoxyphenoxy)-1,3-dimethyl-2-oxo-2,3-dihydro-1H-benzo[d]imidazol-5-yl)benzenesulfonamide] | 10 to 100 nM
2 | CCCOc1cc(OCCCOC)cc(Oc2cc3c(cc2NS(=O)(=O)c2cn(C(C)C)c(C)n2)n(C)c(=O)n3C)c1 [Example 139, 1-isopropyl-N-(6-(3-(3-methoxypropoxy)-5-propoxyphenoxy)-1,3-dimethyl-2-oxo-2,3-dihydro-1H-benzo[d]imidazol-5-yl)-2-methyl-1H-imidazole-4-sulfonamide] | 10 to 100 nM
3 | CCCOc1cc(OCCCOC)cc(Oc2cc3c(cc2NS(=O)(=O)c2cn4c(n2)CCCC4)n(C)c(=O)n3C)c1 [Example 140, N-(6-(3-(3-methoxypropoxy)-5-propoxyphenoxy)-1,3-dimethyl-2-oxo-2,3-dihydro-1H-benzo[d]imidazol-5-yl)-5,6,7,8-tetrahydroimidazo[1,2-a]pyridine-2-sulfonamide] | 10 to 100 nM
4 | COCCCOc1cc(OCC(F)(F)F)cc(Oc2cc3c(cc2NS(=O)(=O)c2cn(C)c(C)n2)n(C)c(=O)n3C)c1 [Example 141, N-(6-(3-(3-methoxypropoxy)-5-(2,2,2-trifluoroethoxy)phenoxy)-1,3-dimethyl-2-oxo-2,3-dihydro-1H-benzo[d]imidazol-5-yl)-1,2-dimethyl-1H-imidazole-4-sulfonamide] | 10 to 100 nM
5 | C=CCOc1cccc(Oc2cc3c(cc2NS(=O)(=O)c2cccc4ccccc24)n(C)c(=O)n3C)c1 [Example 142, N-(6-(3-(allyloxy)phenoxy)-1,3-dimethyl-2-oxo-2,3-dihydro-1H-benzo[d]imidazol-5-yl)naphthalene-1-sulfonamide] | 100 to 1000 nM
6 | C=CCOc1cccc(Oc2cc3c(cc2NS(=O)(=O)c2ccc(OC)c(NC(C)=O)c2)n(C)c(=O)n3C)c1 [Example 143, N-(5-(N-(6-(3-(allyloxy)phenoxy)-1,3-dimethyl-2-oxo-2,3-dihydro-1H-benzo[d]imidazol-5-yl)sulfamoyl)-2-methoxyphenyl)acetamide] | 100 to 1000 nM
7 | C=CCOc1cccc(Oc2cc3c(cc2NS(=O)(=O)c2ccccn2)n(C)c(=O)n3C)c1 [Example 144, N-(6-(3-(allyloxy)phenoxy)-1,3-dimethyl-2-oxo-2,3-dihydro-1H-benzo[d]imidazol-5-yl)pyridine-2-sulfonamide] | 100 to 1000 nM
8 | COc1ccc(S(=O)(=O)Nc2cc3c(cc2Oc2cccc(OCCCCCCN)c2)n(C)c(=O)n3C)cc1OC [Example 145, N-(6-(3-((6-aminohexyl)oxy)phenoxy)-1,3-dimethyl-2-oxo-2,3-dihydro-1H-benzo[d]imidazol-5-yl)-3,4-dimethoxybenzenesulfonamide] | 10 to 100 nM
9 | Cn1cnc(S(=O)(=O)Nc2cc3c(cc2Oc2cccc(OCCCCCCN)c2)n(C)c(=O)n3C)c1 [Example 146, N-(6-(3-((6-aminohexyl)oxy)phenoxy)-1,3-dimethyl-2-oxo-2,3-dimethyl-2-oxo-2,3-dihydro-1H-benzo[d]imidazol-5-yl)-1-methyl-1H-imidazole-4-sulfonamide] | 100 to 1000 nM
10 | CCCOc1cc(OCCCOC)cc(Oc2cc3c(cc2NS(=O)(=O)c2cn(CC(C)C)cn2)n(C)c(=O)n3C)c1 [Example 147, 1-isobutyl-N-(6-(3-(3-methoxypropoxy)-5-propoxyphenoxy)-1,3-dimethyl-2-oxo-2,3-dihydro-1H-benzo[d]imidazol-5-yl)-1H-imidazole-4-sulfonamide] | 10 to 100 nM
11 | CCCOc1cc(OCCCOC)cc(Oc2cc3c(cc2NS(=O)(=O)c2cn(C(C)CC)cn2)n(C)c(=O)n3C)c1 (stereo not drawn) [Example 148, 1-(sec-butyl)-N-(6-(3-(3-methoxypropoxy)-5-propoxyphenoxy)-1,3-dimethyl-2-oxo-2,3-dihydro-1H-benzo[d]imidazol-5-yl)-1H-imidazole-4-sulfonamide] | 10 to 100 nM
12 | CCCOc1cc(OCCCOC)cc(Oc2cc3c(cc2NS(=O)(=O)c2cn(C)c(Cl)n2)n(C)c(=O)n3C)c1 [Example 149, 2-chloro-N-(6-(3-(3-methoxypropoxy)-5-propoxyphenoxy)-1,3-dimethyl-2-oxo-2,3-dihydro-1H-benzo[d]imidazol-5-yl)-1-methyl-1H-imidazole-4-sulfonamide] | 10 to 100 nM
13 | CCCOc1cc(OCCCOC)cc(Oc2cc3c(cc2NS(=O)(=O)C2CC2)n(C)c(=O)n3C)c1 [Example 150, N-(6-(3-(3-methoxypropoxy)-5-propoxyphenoxy)-1,3-dimethyl-2-oxo-2,3-dihydro-1H-benzo[d]imidazol-5-yl)cyclopropanesulfonamide] | 100 to 1000 nM
14 | CCCOc1cc(OCCCOC)cc(Oc2cc3c(cc2NS(=O)(=O)c2cccc(OC)c2)n(C)c(=O)n3C)c1 [Example 151, 3-methoxy-N-(6-(3-(3-methoxypropoxy)-5-propoxyphenoxy)-1,3-dimethyl-2-oxo-2,3-dihydro-1H-benzo[d]imidazol-5-yl)benzenesulfonamide] | 10 to 100 nM
15 | CCCOc1cc(OCCCOC)cc(Oc2cc3c(cc2NS(=O)(=O)c2cn(C)cn2)n(C)c(=O)n3C)c1 [Example 152, N-(6-(3-(3-methoxypropoxy)-5-propoxyphenoxy)-1,3-dimethyl-2-oxo-2,3-dihydro-1H-benzo[d]imidazol-5-yl)-1-methyl-1H-imidazole-4-sulfonamide] | 10 to 100 nM
16 | CCCOc1cc(OCCCOC)cc(Oc2cc3c(cc2NS(=O)(=O)c2cnn(C)c2)n(C)c(=O)n3C)c1 [Example 153, N-(6-(3-(3-methoxypropoxy)-5-propoxyphenoxy)-1,3-dimethyl-2-oxo-2,3-dihydro-1H-benzo[d]imidazol-5-yl)-1-methyl-1H-pyrazole-4-sulfonamide] | 10 to 100 nM
17 | CCCOc1cc(OCCCOC)cc(Oc2cc3c(cc2NS(=O)(=O)c2cnn(C)c2C)n(C)c(=O)n3C)c1 [Example 154] | 10 to 100 nM
18 | CCCOc1cc(OCCCOC)cc(Oc2cc3c(cc2NS(=O)(=O)c2cccc(C)c2)n(C)c(=O)n3C)c1 [Example 155, N-(6-(3-(3-methoxypropoxy)-5-propoxyphenoxy)-1,3-dimethyl-2-oxo-2,3-dihydro-1H-benzo[d]imidazol-5-yl)-3-methylbenzenesulfonamide] | 100 to 1000 nM
19 | CCCOc1cc(OCCCOC)cc(Oc2cc3c(cc2NS(=O)(=O)c2cccc(F)c2)n(C)c(=O)n3C)c1 [Example 156, 3-fluoro-N-(6-(3-(3-methoxypropoxy)-5-propoxyphenoxy)-1,3-dimethyl-2-oxo-2,3-dihydro-1H-benzo[d]imidazol-5-yl)benzenesulfonamide] | 100 to 1000 nM
20 | CCCOc1cc(OCCCOC)cc(Oc2cc3c(cc2NS(=O)(=O)c2ccc(OC)cc2)n(C)c(=O)n3C)c1 [Example 157, 4-methoxy-N-(6-(3-(3-methoxypropoxy)-5-propoxyphenoxy)-1,3-dimethyl-2-oxo-2,3-dihydro-1H-benzo[d]imidazol-5-yl)benzenesulfonamide] | 100 to 1000 nM
21 | CCCOc1cc(OCCCOC)cc(Oc2cc3c(cc2NS(=O)(=O)c2ccccn2)n(C)c(=O)n3C)c1 [Example 158, N-(6-(3-(3-methoxypropoxy)-5-propoxyphenoxy)-1,3-dimethyl-2-oxo-2,3-dihydro-1H-benzo[d]imidazol-5-yl)pyridine-2-sulfonamide] | 10 to 100 nM
